Assay results reported in patent US6420367B1, “Pyrimidine derivatives exhibiting antitumor activity” (Shionogo & Co., Ltd., priority 1998, dated 2002).
Values after ≈ are worked out from the molar mass of the structure shown.

Legend:
[1] = test system: DT-R cells (pRRE3-luc-transfected v-ki-ras-transformed NIH3T3 cells); signal derived from Ras oncogene products; assay: Inhibitory effect against cellular signaling derived from Ras oncogene products: luciferase reporter, dissociation of DT-R from DT-C activity (MAC); format: cell-based, mouse; conditions: minimal tested concentration at which luciferase activities of DT-C cells and DT-R cells dissociated
Text: Test Example 1 Inhibitory Effect Against Cellular Signaling Derived From Ras Oncogene Products
1) Establishment of Cell Lines Used in Assay
Based on the reporter plasmid (pGV-P (Toyo Ink, Japan)), in which luciferase gene was ligated to SV40-derived minimal promoter, we constructed a plasmid designated pRRE3-luc by inserting 3 copies of chemically synthesized oligonucleotides (Sequence: CAGGATATGACTCT, derived from mouse NVL-3 (M. A. Reddy et al.(1992)Mol. Endocrinol., 6, 1051)) into upstream of the promoter. v-ki-ras-transformed NIH3T3 cells (DT cells, provided by Dr. Makoto Noda (Kyoto Univ., School of medicine)) were transfected with this plasmid by liposome-mediated transfection and transfected cell lines stably incorporated and maintained each plasmid were obtained. We named pGV-P and pRRE3-transfected cell line as DT-C and DT-R, respectively and used in the assay described below.
2) Preparation of Samples
i) All the cell lines were cultured in Dulbecco's Modified Essential Medium (DMEM: 10% Fetal Calf Serum(FCS: Hyclone, USA)) including […] kanamycin (Meiji Seika, Japan) in humidified incubator under condition of 5% CO2 at 37° C.
ii) DT-C and DT-R cells were seeded at 2500 cells/well into flat-bottom 96 well multiplate (Sumitomo bakelite) and incubated for 24 hours.
iii) Test compounds were prepared as 1 mg/ml DMSO solution.
iv) The solution of test compounds were added to the culture. Tested compounds are used at the concentration from […] to 0.51 ng/ml with by 3-fold dilution.
v) After 24 hours, the culture supernatant was completely aspirated and […] of cell-lysing solution (PGC-50 (Toyo Ink, Japan)) was added before cells were dried up. In order to the cells were lysed completely, multiwell plates were left at room temperature for 10 to 30 min. The plates were wrapped up and stored at −20° C. till the day of measurement.
3) Measurement of Samples
i) Melt the samples by putting 96 well multiplate at 37° C. and add 90 μl/well 25 mM Tris (pH 7.5).
ii) Transfer 50 μl of the sample (110 μl) to the 96 well microplate for measurement (Microlite 1 (Dynatech)).
iii) Measure the samples by the luminometer, LUMINOUS CT9000D (Dia-Yatron, Japan). We used Pickagene luminescence kit PGL2000 or LT2.0 (Toyo Ink, Japan) as substrates for luminescence measurement (50 μl/well).
4) Judgment of the Results
i) The luciferase activity of DT-C cells and DT-R cells were plotted in the graph where the relative activity and the compound concentration were expressed as Y-axis and X-axis, respectively. We judged by the degree of dissociation between the activities of DT-C cells and DT-R cells as an index.
ii) Concretely, efficacy of the compound was expressed by two values described below.
a) Among the points of concentration tested, the minimal concentration (Minimal Active Concentration: MAC), at which the activities of DT-C cells and DT-R cells dissociated, was shown as an index of efficacy of the compound.

[2] = test system: human colon cancer HT29; assay: In vitro cell growth inhibition test, MTT assay; format: cell-based; conditions: MTT assay 4 days after compound addition
Text: (§1) Test Example 2 In Vitro Cell Growth Inhibition Test Cells and MTT Assay
(§2) Human squamous lung cancer […], human squamous lung cancer Ma44, human lung adenocarcinoma A549, human colon cancer HT29 and human pancreas cancer PANC-1 were used.

[3] = test system: human lung adenocarcinoma A549; assay: In vitro cell growth inhibition test, MTT assay; format: cell-based; conditions: MTT assay 4 days after compound addition
Text: as §1, §2

[4] = test system: human pancreas cancer PANC-1; assay: In vitro cell growth inhibition test, MTT assay; format: cell-based; conditions: MTT assay 4 days after compound addition
Text: as §1, §2

[5] = test system: human squamous lung cancer Ma44; assay: In vitro cell growth inhibition test, MTT assay; format: cell-based; conditions: MTT assay 4 days after compound addition
Text: as §1, §2

[6] = test system: human squamous lung cancer RERF-RC-AI; assay: In vitro cell growth inhibition test, MTT assay; format: cell-based; conditions: MTT assay 4 days after compound addition
Text: as §1, §2

| Compound | IC50, HT29 [2] [µg/mL] | IC50, A549 [3] [µg/mL] | IC50, PANC-1 [4] [µg/mL] | IC50, Ma44 [5] [µg/mL] | IC50, RERF-LC-AI [6] [µg/mL] | MAC (Minimal Active Concentration) [1] [µg/mL] |
| --- | --- | --- | --- | --- | --- | --- |
| CCNC(=Nc1nc(C)ncc1CSc1nnc(-c2ccccc2N)o1)NC [Compound A-1] | 0.012 (≈ 0.0301 µM) | 0.022 (≈ 0.0552 µM) | 0.016 (≈ 0.0402 µM) | 0.039 (≈ 0.0979 µM) | 0.018 (≈ 0.0452 µM) | 0.0412 |
| CCNC(=Nc1ncncc1CSc1nnc(-c2ccc(N(C)C)cc2)o1)NCC [Compound A-67] | 0.083 (≈ 0.195 µM) | 0.083 (≈ 0.195 µM) | 0.34 (≈ 0.797 µM) | 6.1 (≈ 14.3 µM) | 0.053 (≈ 0.124 µM) | – |
| CCNC(=Nc1nc(C)ncc1CSc1nnc(-c2ccccc2NC(C)=O)o1)NC [Compound A-2] | 0.015 (≈ 0.034 µM) | 0.017 (≈ 0.0386 µM) | 0.015 (≈ 0.034 µM) | 0.022 (≈ 0.0499 µM) | 0.009 (≈ 0.0204 µM) | 0.0412 |
| CCNC(=Nc1nc(C)ncc1CSc1nnc(-c2ccc(C)cc2)o1)NCC [Compound A-74] | 0.01 (≈ 0.0243 µM) | 0.034 (≈ 0.0826 µM) | 0.017 (≈ 0.0413 µM) | 0.012 (≈ 0.0292 µM) | 0.008 (≈ 0.0194 µM) | 0.123 |
| CCNC(=Nc1ncncc1CSc1nnc(-c2ccc(NC)cc2)o1)NCC [Compound A-66] | 0.067 (≈ 0.162 µM) | 0.036 (≈ 0.0873 µM) | 0.17 (≈ 0.412 µM) | 1.8 (≈ 4.36 µM) | 0.05 (≈ 0.121 µM) | – |
| CCCNC(=Nc1nc(C)ncc1CSc1nnc(-c2ccc(N)cc2)o1)NC [Compound A-148] | 0.016 (≈ 0.0388 µM) | 0.49 (≈ 1.19 µM) | 0.015 (≈ 0.0364 µM) | 0.086 (≈ 0.208 µM) | 0.011 (≈ 0.0267 µM) | 0.123 |
| CCNC(=Nc1ncncc1CSc1nnc(-c2ccc(N)cc2)o1)NCC [Compound A-3] | 0.0066 (≈ 0.0166 µM) | 0.035 (≈ 0.0878 µM) | 0.015 (≈ 0.0376 µM) | 0.09 (≈ 0.226 µM) | 0.026 (≈ 0.0652 µM) | 0.0412 |

Continued, in another order:

| IC50, HT29 [2] [µg/mL] | IC50, A549 [3] [µg/mL] | IC50, PANC-1 [4] [µg/mL] | IC50, Ma44 [5] [µg/mL] | IC50, RERF-LC-AI [6] [µg/mL] | Compound | MAC (Minimal Active Concentration) [1] [µg/mL] |
| --- | --- | --- | --- | --- | --- | --- |
| 0.01 | 0.052 | 0.017 | 0.016 | 0.012 | CCCNC(=Nc1nc(C)ncc1CSc1nnc(-c2ccc([N+](=O)[O-])cc2)o1)NCC.Cl [Compound A-188] | 0.0137 |
| 0.18 (≈ 0.447 µM) | 3.2 (≈ 7.95 µM) | 2.4 (≈ 5.96 µM) | 5.2 (≈ 12.9 µM) | 0.083 (≈ 0.206 µM) | CCNC(=Nc1nc(C)ncc1CSc1nnc(-c2c[nH]nc2N)o1)NCC [Compound D-7] | – |
| 0.0064 (≈ 0.0154 µM) | 0.013 (≈ 0.0314 µM) | 0.0041 (≈ 0.00989 µM) | 0.0062 (≈ 0.015 µM) | 0.0029 (≈ 0.007 µM) | CCNC(N)=Nc1nc(C)ncc1CSc1nnc(-c2ccc([N+](=O)[O-])cc2)o1 [Compound A-185] | 0.0137 |
| 0.038 (≈ 0.0857 µM) | 0.0061 (≈ 0.0138 µM) | 0.12 (≈ 0.271 µM) | 0.74 (≈ 1.67 µM) | 0.062 (≈ 0.14 µM) | CCNC(=Nc1nc(C)ncc1CSc1nnc(-c2ccc([N+](=O)[O-])cn2)o1)NCC [Compound D-45] | 1.11 |
| 0.027 (≈ 0.0576 µM) | 0.041 (≈ 0.0875 µM) | 0.025 (≈ 0.0533 µM) | 0.05 (≈ 0.107 µM) | 0.021 (≈ 0.0448 µM) | CCCCNC(=Nc1nc(C)ncc1CSc1nnc(-c2ccc(N)cc2)o1)NCCCC [Compound A-169] | 0.0412 |
